{
  "source": "patent US20060128759A1",
  "about": "“Substituted isoxazole derivatives and their use in pharmaceutics” (MERCKLE GMBH, priority 2002, published 2006)",
  "note": "pIC50: −log10 of the molar value.",
  "data": [
    {"target": "p38α (Homo sapiens, UniProt Q16539)", "sequence (Q16539 whole entry)": "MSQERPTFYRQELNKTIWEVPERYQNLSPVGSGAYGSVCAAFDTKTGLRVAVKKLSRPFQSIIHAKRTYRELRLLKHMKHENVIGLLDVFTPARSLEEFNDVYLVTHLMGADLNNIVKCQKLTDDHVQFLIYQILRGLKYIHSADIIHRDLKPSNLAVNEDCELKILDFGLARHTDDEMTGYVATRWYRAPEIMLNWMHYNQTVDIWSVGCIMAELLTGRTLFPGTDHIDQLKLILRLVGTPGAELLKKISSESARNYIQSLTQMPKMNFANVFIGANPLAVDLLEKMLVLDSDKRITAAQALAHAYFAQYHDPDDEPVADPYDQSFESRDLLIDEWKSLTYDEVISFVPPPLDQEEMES", "test": "Kinase assay (phosphorylation of ATF2 by activated p38α, ELISA readout at 405 nm)", "type": "biochemical", "conditions": "activated p38α, ATF2 substrate, 100 μM ATP, 37° C., 1 hour; read-out: IC50 p 38", "description": "(§1) • 1) The mononuclear cells (PBMCs) from human potassium-EDTA whole blood, diluted 1:3, are isolated by density gradient centrifugation (Histopaque®-1.077). The cells are washed twice with DPBS buffer, resuspended in macrophage SFM medium and adjusted to a cell count of 1*10^6 cells/ml. • The resulting PBMCs suspension (samples of in each case 390 μl) and the test substance are preincubated at 37° C. in a CO2 incubator (5% CO2; 95% moisture-saturated air) for 15 min. The samples are then stimulated with in each case 1 μl/ml of LPS (E. coli 026:B6) at 37° C. in a CO2 incubator (5% CO2; 95% moisture-saturated air) for 4 hours. The reaction is stopped by placing the samples on ice, adding DPBS buffer and then centrifuging at 15 880*g for 12 min. The amount of IL-1β and TNFα in the plasma supernatant is then determined by ELISA. • 2) Kinase assay • At 37° C., microtiter plates were coated for one hour with 50 μl of ATF2 solution (20 μg/ml). The plates were washed three times with water, and 50 μl of kinase mixture (50 mM tris-HCl 10 mM MgCl2, 10 mM β-glycerol phosphate, 10 μg/ml of BSA, 1 mM DTT, 100 μM ATP, 100 μM Na3VO4, 10 ng of activated p38α) with or without inhibitor were added into the wells, and the plates were incubated at 37° C. for 1 hour. The plates were washed three times and then incubated with phosphorus-ATF-2 antibody at 37° C. for one hour. The plates were once more washed three times, and goat-antirabbit IgG labeled with alkaline phosphatase was added at 37° C. for one hour (to fix the antibody-phosphorylated protein/substrate complex). The plates were washed three times, and the alkaline phosphatase/substrate solution (3 mM 4-NPP, 50 mM NaHCO3, 50 mM MgCl2, 100 μl/well) was added at 37° C. for 1.5 hours. […] The IC50 values were calculated.", "values": [
      {"compound": "4-[5-(ethoxyphenyl)-4-(4-fluorophenyl)isoxazol-3-yl]pyridine [Compound 11]", "pIC50": 5.00},
      {"compound": "Cc1onc(-c2ccncc2)c1-c1ccc(F)cc1", "note": "[Compound 1, 4-[4-(4-fluorophenyl)-5-methylisoxazol-3-yl]pyridine]", "pIC50": 4.17},
      {"compound": "CC(=O)Nc1cc(-c2onc(-c3ccncc3)c2-c2ccc(F)cc2)ccn1", "note": "[Compound 3, N-{4-[4-(4-fluorophenyl)-3-pyridin-4-ylisoxazol-5-yl]pyridine-2-yl}acetamide]", "pIC50": 4.52},
      {"compound": "CN(C)Cc1onc(-c2ccncc2)c1-c1ccc(F)cc1", "note": "[Compound 4, [4-(4-fluorophenyl)-3-pyridin-4-ylisoxazol-5-ylmethyl]dimethylamine]", "pIC50": 5.40},
      {"compound": "Fc1ccc(-c2c(-c3ccncc3)noc2-c2ccccc2)cc1", "note": "[Compound 5, 4-[4-(4-fluorophenyl)-5-phenylisoxazol-3-yl]pyridine]", "pIC50": 4.66},
      {"compound": "Fc1ccc(-c2c(-c3ccncc3)noc2-c2ccco2)cc1", "note": "[Compound 6, 4-[4-(4-fluorophenyl)-5-furan-2-ylisoxazol-3-yl]pyridine]", "pIC50": 4.66},
      {"compound": "Fc1ccc(-c2c(-c3ccncc3)noc2C2CC2)cc1", "note": "[Compound 7, 4-[5-cyclopropyl-4-(4-fluorophenyl)isozazol-3-yl]pyridine]", "pIC50": 4.55},
      {"compound": "CN(C)c1ccc(-c2onc(-c3ccncc3)c2-c2ccc(F)cc2)cc1", "note": "[Compound 8, {4-[4-(4-fluorophenyl)-3-pyridin-4-ylisoxazol-5-yl]phenyl}dimethylamine]", "pIC50": 4.57},
      {"compound": "Fc1ccc(-c2c(-c3ccncc3)noc2N2CCCCC2)cc1", "note": "[Compound 9, 4-[4-(4-fluorophenyl)-5-piperidin-1-ylisoxazol-3-yl]pyridine]", "pIC50": 5.00},
      {"compound": "COc1ccc(-c2onc(-c3ccncc3)c2-c2ccc(F)cc2)cc1", "note": "[Compound 10, 4-[4-(4-fluorophenyl)-5-(4-methoxyphenyl)isoxazol-3-yl]pyridine]", "pIC50": 5.00}
    ]},
    {"target": "p38α (Homo sapiens, UniProt Q16539)", "test": "Kinase assay (phosphorylation of ATF2 by activated p38α, ELISA readout at 405 nm)", "type": "biochemical", "conditions": "at 10^−5 mol/l; read-out: % inhibition of p 38", "description": "as §1", "units": {"inhibition at 10 µM": "%"}, "values": [
      {"compound": "Fc1ccc(-c2noc(-c3ccc(F)cc3)c2-c2ccncc2)cc1", "note": "[Compound 14, 4-[3,5-Bis(4-fluorophenyl)isoxazol-4-yl]pyridine]", "inhibition at 10 µM": 43.6}
    ]}
  ]
}
